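96-well plates; 48 h exposure; 5 concentrations. Endpoints by linear interpolation between flanking doses. Not reached: highest tested concentration assigned. GI50 is the concentration that inhibits growth by half.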 The source made the active and inactive calls. Cut-off read from the data, not from the text of the source: active = GI50 up to about 1.1 µM and inactive = higher.
Experiments:
Test in all cases: NCI-60 cell line screen, 48 h
[1] = test system: 786-0
[2] = test system: A498
[3] = test system: A549
[4] = test system: ACHN
[5] = test system: BT-549
[6] = test system: CAKI-1
[7] = test system: CCRF-CEM
[8] = test system: COLO 205
[9] = test system: DLD-1
[10] = test system: DMS-114
[11] = test system: DMS-273
[12] = test system: DU-145
[13] = test system: EKVX
[14] = test system: HCC 2998
[15] = test system: HCT-116
[16] = test system: HCT-15
[17] = test system: HL-60
[18] = test system: HOP-18
[19] = test system: HOP-62
[20] = test system: HOP-92
[21] = test system: HT-29
[22] = test system: Hs-578T
[23] = test system: IGROV-1
[24] = test system: K562
[25] = test system: KM-20L2
[26] = test system: KM12
[27] = test system: LOX IMVI
[28] = test system: LXFL 529
[29] = test system: M14
[30] = test system: M19-MEL
[31] = test system: MCF7
[32] = test system: MDA-MB-231
[33] = test system: MDA-MB-435
[34] = test system: MDA-N
[35] = test system: MOLT-4
[36] = test system: Malme-3M
[37] = test system: NCI-H226
[38] = test system: NCI-H23
[39] = test system: NCI-H460
[40] = test system: NCI-H522
[41] = test system: NCI/ADR-RES
[42] = test system: OVCAR-3
[43] = test system: OVCAR-4
[44] = test system: OVCAR-5
[45] = test system: OVCAR-8
[46] = test system: PC-3
[47] = test system: RPMI-8226
[48] = test system: RXF 393
[49] = test system: RXF 631
[50] = test system: SF-268
[51] = test system: SF-295
[52] = test system: SF-539
[53] = test system: SK-MEL-28
[54] = test system: SK-MEL-2
[55] = test system: SK-MEL-5
[56] = test system: SK-OV-3
[57] = test system: SN12C
[58] = test system: SNB-19
[59] = test system: SNB-75
[60] = test system: SNB-78
[61] = test system: SR
[62] = test system: SW-620
[63] = test system: T47D
[64] = test system: TK-10
[65] = test system: U-251
[66] = test system: UACC-257
[67] = test system: UACC-62
[68] = test system: UO-31
[69] = test system: XF498

## Nc1nc2[nH]cnc2c(=S)[nH]1 [THIOGUANINE]
[1]
  GI50: 796 nM (active)
[2]
  GI50: 6.68 µM (inactive)
[3]
  GI50: 3.63 µM (inactive)
[4]
  GI50: 1.86 µM (inactive)
[5]
  GI50: 3.04 µM (inactive)
[6]
  GI50: 621 nM (active)
[7]
  GI50: 169 nM (active)
[8]
  GI50: 1.75 µM (inactive)
[9]
  GI50: 962 nM (active)
[10]
  GI50: 849 nM (active)
[11]
  GI50: 445 nM (active)
[12]
  GI50: 776 nM (active)
[13]
  GI50: 2.03 µM (inactive)
[14]
  GI50: 957 nM (active)
[15]
  GI50: 538 nM (active)
[16]
  GI50: 1080 nM
[17]
  GI50: 1.11 µM (active)
[18]
  GI50: 5.64 µM (inactive)
[19]
  GI50: 780 nM (active)
[20]
  GI50: 818 nM (active)
[21]
  GI50: 1.13 µM (inactive)
[22]
  GI50: 6.28 µM (inactive)
[23]
  GI50: 4.85 µM (inactive)
[24]
  GI50: 385 nM (active)
[25]
  GI50: 782 nM (active)
[26]
  GI50: 1.71 µM (inactive)
[27]
  GI50: 207 nM (active)
[28]
  GI50: 8.45 µM (inactive)
[29]
  GI50: 560 nM (active)
[30]
  GI50: 9.82 µM (inactive)
[31]
  GI50: 701 nM (active)
[32]
  GI50: 2.51 µM (inactive)
[33]
  GI50: 851 nM (active)
[34]
  GI50: 1.01 µM (active)
[35]
  GI50: 269 nM (active)
[36]
  GI50: 1.28 µM (inactive)
[37]
  GI50: 4.41 µM (inactive)
[38]
  GI50: 1.1 µM (active)
[39]
  GI50: 624 nM (active)
[40]
  GI50: 895 nM (active)
[41]
  GI50: 671 nM (active)
[42]
  GI50: 767 nM (active)
[43]
  GI50: 1.45 µM (inactive)
[44]
  GI50: 692 nM (active)
[45]
  GI50: 687 nM (active)
[46]
  GI50: 1.92 µM (inactive)
[47]
  GI50: 438 nM (active)
[48]
  GI50: 865 nM (active)
[49]
  GI50: 527 nM (active)
[50]
  GI50: 1.09 µM (active)
[51]
  GI50: 1.08 µM (active)
[52]
  GI50: 1.05 µM (active)
[53]
  GI50: 9.4 µM (inactive)
[54]
  GI50: 1 µM (active)
[55]
  GI50: 3.5 µM (inactive)
[56]
  GI50: 548 nM (active)
[57]
  GI50: 1.31 µM (inactive)
[58]
  GI50: 76.9 µM (inactive)
[59]
  GI50: 1.48 µM (inactive)
[60]
  GI50: 2.23 µM (inactive)
[61]
  GI50: 182 nM (active)
[62]
  GI50: 1.45 µM (inactive)
[63]
  GI50: 2.07 µM (inactive)
[64]
  GI50: 962 nM (active)
[65]
  GI50: 5.12 µM (inactive)
[66]
  GI50: 2.1 µM (inactive)
[67]
  GI50: 537 nM (active)
[68]
  GI50: 1.56 µM (inactive)
[69]
  GI50: 1.09 µM (active)

— ChEMBL document CHEMBL1201862, “PubChem BioAssay data set” (2004)
